Measured values from ChEMBL document CHEMBL1201862, “PubChem BioAssay data set” (2004).
Where “and” joins values, the source holds several entries; their conditions need not be identical. Equal entries are not always repeated.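 Interpolation was linear, between the two tested concentrations surrounding the appropriate level; five concentrations were tested over 48 hours in 96-well plates. GI50: concentration for 50% inhibition of growth.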 Calls of active or inactive are those of the source. Rule as the data show it: active = GI50 up to about 1.1 µM and inactive = higher.

How the values were obtained:
Experiment in all cases: NCI anticancer screen, dose series, 48 h
NCI/ADR-RES = test system: NCI/ADR-RES
HT-29 = test system: HT-29
ACHN = test system: ACHN
NCI-H460 = test system: NCI-H460
LOX IMVI = test system: LOX IMVI
COLO 205 = test system: COLO 205
Hs-578T = test system: Hs-578T
IGROV-1 = test system: IGROV-1
SK-MEL-2 = test system: SK-MEL-2
OVCAR-8 = test system: OVCAR-8
SNB-75 = test system: SNB-75
UACC-257 = test system: UACC-257
HOP-62 = test system: HOP-62
HOP-92 = test system: HOP-92
SR = test system: SR
OVCAR-4 = test system: OVCAR-4
MOLT-4 = test system: MOLT-4
EKVX = test system: EKVX
Malme-3M = test system: Malme-3M
HCT-15 = test system: HCT-15
SF-268 = test system: SF-268
PC-3 = test system: PC-3
A549 = test system: A549
OVCAR-3 = test system: OVCAR-3
SW-620 = test system: SW-620
SK-MEL-5 = test system: SK-MEL-5
MDA-MB-231 = test system: MDA-MB-231
SN12C = test system: SN12C
T47D = test system: T47D
UACC-62 = test system: UACC-62
SF-295 = test system: SF-295
NCI-H522 = test system: NCI-H522
M14 = test system: M14
SK-OV-3 = test system: SK-OV-3
CAKI-1 = test system: CAKI-1
SF-539 = test system: SF-539
K562 = test system: K562
TK-10 = test system: TK-10
786-0 = test system: 786-0
RXF 393 = test system: RXF 393

Measured: GI50

c1ccc2c3nnc(c2c1)SCCSCCSc1nnc(c2ccccc12)SCCSCCS3
inactive: NCI/ADR-RES > 100 µM | HT-29 > 100 µM | ACHN > 100 µM | NCI-H460 > 100 µM | LOX IMVI > 100 µM | COLO 205 > 100 µM | Hs-578T > 100 µM | IGROV-1 > 100 µM | SK-MEL-2 > 100 µM | OVCAR-8 > 100 µM | SNB-75 > 100 µM | UACC-257 > 100 µM | HOP-62 > 100 µM | HOP-92 > 100 µM | SR > 100 µM | OVCAR-4 > 100 µM | MOLT-4 > 100 µM | EKVX > 100 µM | Malme-3M > 100 µM | SF-268 > 100 µM | PC-3 > 100 µM | A549 > 100 µM | OVCAR-3 > 100 µM | SW-620 > 100 µM | SK-MEL-5 > 100 µM | MDA-MB-231 > 100 µM | SN12C > 100 µM | T47D > 100 µM | UACC-62 > 100 µM | SF-295 > 100 µM | NCI-H522 > 100 µM | M14 > 100 µM | SK-OV-3 > 100 µM
> 100 µM: HCT-15

CC(=O)OCC1OC(n2c(-c3ccccc3)c(/N=N/c3ccc(Cl)cc3)c(C)c(C#N)c2=S)C(OC(C)=O)C(OC(C)=O)C1OC(C)=O (stereo not given)
inactive: CAKI-1 24.3 µM and 14.3 µM | Hs-578T 15.8 µM and 15.3 µM | HOP-62 15.6 µM and 27.8 µM | SF-539 14 µM and 19.6 µM | MOLT-4 4.91 µM and 3.56 µM | PC-3 9.4 µM and 5.09 µM | K562 6.76 µM and 11.8 µM | SW-620 7.01 µM and 12.4 µM | TK-10 33.8 µM and 24.6 µM | 786-0 19.5 µM and 23.9 µM | RXF 393 17.4 µM and 13.2 µM
